Test results published in PMC7429951 (Journal of Medicinal Chemistry, 2020).
Where two headings read alike, the source gives them in different places.

Key:
[1] = target: peptidase domain of ColH (ColH-PD) (Hathewaya histolytica, UniProt Q46085); experiment: biochemical; set-up: species or system Clostridium histolyticum; conditions: read-out: ColH-PD % inhibition @ 1 μM
MMP-1 = target: T1, MMP-1 (Homo sapiens, UniProt P03956); experiment: MMP-1 off-target inhibition; format: biochemical; conditions: read-out: MMP-1 % inhibition @ 100 μM; 100 μM compound
T1 sequence (P03956 100-469): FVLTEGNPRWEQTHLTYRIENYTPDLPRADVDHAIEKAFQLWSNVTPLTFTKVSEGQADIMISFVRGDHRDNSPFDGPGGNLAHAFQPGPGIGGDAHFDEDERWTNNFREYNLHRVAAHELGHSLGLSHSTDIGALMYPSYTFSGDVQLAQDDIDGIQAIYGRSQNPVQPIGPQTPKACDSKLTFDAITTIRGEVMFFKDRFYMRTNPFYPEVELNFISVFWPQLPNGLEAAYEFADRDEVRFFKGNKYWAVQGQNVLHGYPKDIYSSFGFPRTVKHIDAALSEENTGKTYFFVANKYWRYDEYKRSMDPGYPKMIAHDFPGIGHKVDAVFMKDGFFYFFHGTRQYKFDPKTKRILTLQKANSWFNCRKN
Text: (§1) Previously, we described N-aryl mercaptoacetamides with high selectivity for the bacterial over a broad range of human MMPs.[29],[30] MMPs are calcium-dependent zinc metalloproteases that play a pivotal role in numerous biochemical processes in humans.[39],[40] Based on the depth of their S1′ binding pocket, MMPs can be divided into three classes: deep (e.g., MMP-3 and -14), intermediate (e.g., MMP-2 and -8), and shallow (e.g., MMP-1 and -7). With the aim to explore the interactions of our inhibitors with all three pocket types, which could help us to assess potential effects on other not-tested representatives, we chose a panel of six MMPs, comprising two members of each class. In addition, HDAC-3, HDAC-8, and TACE (ADAM-17)—enzymes involved in gene expression and the processing of TNF-α,[41],[42] respectively—were selected as important additional human off-targets.

MMP-2 = target: T2, MMP-2 (Homo sapiens, UniProt P08253); experiment: MMP-2 off-target inhibition; format: biochemical
T2 sequence (P08253 110-660): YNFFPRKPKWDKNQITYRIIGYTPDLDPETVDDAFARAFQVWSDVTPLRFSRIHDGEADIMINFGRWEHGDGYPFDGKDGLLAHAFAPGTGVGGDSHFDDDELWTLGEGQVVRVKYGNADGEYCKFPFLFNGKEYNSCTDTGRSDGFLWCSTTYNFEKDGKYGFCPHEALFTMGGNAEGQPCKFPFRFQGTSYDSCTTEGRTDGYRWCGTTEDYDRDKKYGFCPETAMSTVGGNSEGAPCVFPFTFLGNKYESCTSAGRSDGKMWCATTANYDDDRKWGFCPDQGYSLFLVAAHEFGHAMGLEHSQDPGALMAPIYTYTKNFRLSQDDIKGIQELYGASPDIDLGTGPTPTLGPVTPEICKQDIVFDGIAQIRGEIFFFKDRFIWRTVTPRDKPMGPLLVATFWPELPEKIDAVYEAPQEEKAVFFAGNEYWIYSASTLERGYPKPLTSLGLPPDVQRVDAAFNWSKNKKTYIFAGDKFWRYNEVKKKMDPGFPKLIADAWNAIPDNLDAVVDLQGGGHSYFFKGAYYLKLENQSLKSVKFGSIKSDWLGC
Text: as §1

MMP-3 = MMP-3 (Homo sapiens, UniProt P08254); experiment: MMP-3 off-target inhibition; format: biochemical; conditions: read-out: MMP-3 % inhibition @ 100 μM; 100 μM compound
Text: as §1

MMP-7 = target: T3, MMP-7 (Homo sapiens, UniProt P09237); experiment: MMP-7 off-target inhibition; format: biochemical; conditions: read-out: MMP-7 % inhibition @ 100 μM; 100 μM compound
T3 sequence (P09237 95-267): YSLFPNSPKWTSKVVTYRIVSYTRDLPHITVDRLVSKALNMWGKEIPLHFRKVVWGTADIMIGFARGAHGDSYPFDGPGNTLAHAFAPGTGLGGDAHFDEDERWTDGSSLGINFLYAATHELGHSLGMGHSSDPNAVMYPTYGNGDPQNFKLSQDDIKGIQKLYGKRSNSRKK
Text: as §1

MMP-8 = MMP-8 (Homo sapiens, UniProt P22894); experiment: MMP-8 off-target inhibition; format: biochemical
Text: as §1

MMP-14 = MMP-14 (Homo sapiens, UniProt P50281); experiment: MMP-14 off-target inhibition; format: biochemical
Text: as §1

HDAC-3 = target: T4, HDAC-3 (Homo sapiens, UniProt O15379); experiment: HDAC-3 inhibitor screening kit; format: biochemical
T4 construct: purchased Sigma-Aldrich (Saint Louis, MO)
Text: as §1

HDAC-8 = target: T5, HDAC-8 (Homo sapiens, UniProt Q9BY41); experiment: HDAC-8 inhibitor screening kit; format: biochemical
T5 construct: purchased Sigma-Aldrich (Saint Louis, MO)
T5 sequence (Q9BY41 1-377): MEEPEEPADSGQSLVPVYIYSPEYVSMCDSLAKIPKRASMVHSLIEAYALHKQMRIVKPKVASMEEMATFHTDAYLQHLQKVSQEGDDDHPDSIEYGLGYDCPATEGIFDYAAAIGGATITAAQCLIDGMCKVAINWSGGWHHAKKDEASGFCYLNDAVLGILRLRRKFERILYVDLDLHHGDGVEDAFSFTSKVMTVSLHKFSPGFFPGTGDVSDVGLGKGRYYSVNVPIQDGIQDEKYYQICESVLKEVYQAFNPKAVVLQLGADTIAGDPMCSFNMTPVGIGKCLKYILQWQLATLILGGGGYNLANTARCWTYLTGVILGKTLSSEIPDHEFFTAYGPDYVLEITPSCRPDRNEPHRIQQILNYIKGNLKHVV
Text: as §1

TACE (ADAM-17) = target: T6, TACE (ADAM-17) (Homo sapiens, UniProt P78536); experiment: TACE inhibitor screening kit; format: biochemical
T6 construct: purchased Sigma-Aldrich (Saint Louis, MO)
Text: as §1

[2] = tested on: P. aeruginosa strain PA14; experiment: Bacterial growth inhibition assay (MIC) P. aeruginosa; format: cell-based, Pseudomonas aeruginosa
LasB [3] = target: T7, LasB (Pseudomonas aeruginosa, UniProt Q02RJ6)
in vitro [4] = conditions: human, HepG2 cells (hepatocellular carcinoma)
in vitro [5] = conditions: human, HEK293 cells (embryonal kidney)
in vitro [6] = conditions: human, A549 cells (lung carcinoma)
LasB [7] = target: T7, LasB; experiment: biochemical; conditions: LasB IC50, FRET-based assay
LasB [8] = target: T7, LasB; conditions: read-out: IC50 (LasB); literature inhibitor; cited from earlier work

T7 sequence (Q02RJ6 198-498): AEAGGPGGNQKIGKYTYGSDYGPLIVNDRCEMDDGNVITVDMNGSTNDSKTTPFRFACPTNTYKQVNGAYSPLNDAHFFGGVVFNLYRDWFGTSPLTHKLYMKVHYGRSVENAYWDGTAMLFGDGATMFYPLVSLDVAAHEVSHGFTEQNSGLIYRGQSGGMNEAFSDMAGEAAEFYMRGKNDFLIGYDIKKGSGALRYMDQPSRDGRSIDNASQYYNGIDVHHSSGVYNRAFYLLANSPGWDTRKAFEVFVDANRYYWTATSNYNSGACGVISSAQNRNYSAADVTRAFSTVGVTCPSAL
Sequence of MMP-8 (P22894 101-467): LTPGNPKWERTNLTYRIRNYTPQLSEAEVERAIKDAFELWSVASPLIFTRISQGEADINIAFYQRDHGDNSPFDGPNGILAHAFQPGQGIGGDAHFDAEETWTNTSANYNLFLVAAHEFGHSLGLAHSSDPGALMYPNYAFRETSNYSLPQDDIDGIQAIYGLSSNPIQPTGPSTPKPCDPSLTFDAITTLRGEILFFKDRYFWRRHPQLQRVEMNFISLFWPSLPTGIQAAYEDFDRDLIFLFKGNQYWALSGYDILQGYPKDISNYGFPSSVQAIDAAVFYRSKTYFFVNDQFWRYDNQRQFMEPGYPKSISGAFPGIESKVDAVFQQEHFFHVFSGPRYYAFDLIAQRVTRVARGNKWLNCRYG
Sequence of MMP-3 (P08254 100-477): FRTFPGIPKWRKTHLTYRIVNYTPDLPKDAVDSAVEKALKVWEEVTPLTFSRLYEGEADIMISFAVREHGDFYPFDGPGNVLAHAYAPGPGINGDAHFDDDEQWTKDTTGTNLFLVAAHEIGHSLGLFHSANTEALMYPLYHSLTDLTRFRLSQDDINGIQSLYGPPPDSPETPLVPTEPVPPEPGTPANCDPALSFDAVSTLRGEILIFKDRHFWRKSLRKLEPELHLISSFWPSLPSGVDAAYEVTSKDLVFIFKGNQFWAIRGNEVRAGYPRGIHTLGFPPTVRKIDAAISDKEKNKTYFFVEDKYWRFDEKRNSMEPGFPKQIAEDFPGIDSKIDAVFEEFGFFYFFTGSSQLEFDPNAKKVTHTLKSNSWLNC
Sequence of peptidase domain of ColH (ColH-PD) (Q46085 331-721 limits assumed): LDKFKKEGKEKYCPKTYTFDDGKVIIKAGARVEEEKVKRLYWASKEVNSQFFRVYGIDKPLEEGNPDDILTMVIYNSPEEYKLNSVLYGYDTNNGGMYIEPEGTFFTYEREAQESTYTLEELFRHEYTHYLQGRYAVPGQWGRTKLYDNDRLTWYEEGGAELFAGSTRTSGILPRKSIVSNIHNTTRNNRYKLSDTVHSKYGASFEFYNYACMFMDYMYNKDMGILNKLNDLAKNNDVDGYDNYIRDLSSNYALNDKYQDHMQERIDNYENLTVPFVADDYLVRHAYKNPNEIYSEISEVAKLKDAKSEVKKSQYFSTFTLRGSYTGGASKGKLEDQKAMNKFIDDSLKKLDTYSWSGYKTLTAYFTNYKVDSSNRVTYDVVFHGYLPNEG
T4 sequence (O15379 whole entry): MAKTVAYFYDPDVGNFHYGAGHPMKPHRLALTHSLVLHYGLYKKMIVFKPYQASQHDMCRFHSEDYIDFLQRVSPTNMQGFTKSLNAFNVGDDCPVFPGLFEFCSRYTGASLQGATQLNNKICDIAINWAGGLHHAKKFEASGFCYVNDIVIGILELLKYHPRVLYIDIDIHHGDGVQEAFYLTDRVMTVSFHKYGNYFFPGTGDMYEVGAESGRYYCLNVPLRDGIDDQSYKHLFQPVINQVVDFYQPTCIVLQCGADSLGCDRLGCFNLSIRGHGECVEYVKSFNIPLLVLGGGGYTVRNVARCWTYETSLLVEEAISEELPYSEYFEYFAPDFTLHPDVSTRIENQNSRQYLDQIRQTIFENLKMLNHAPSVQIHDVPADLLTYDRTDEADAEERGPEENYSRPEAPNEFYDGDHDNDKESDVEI
T4 sequence (Q9Y618 395-489 partner limits assumed): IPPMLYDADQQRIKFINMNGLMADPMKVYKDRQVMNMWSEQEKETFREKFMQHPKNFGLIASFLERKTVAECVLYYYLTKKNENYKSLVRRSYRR
T6 sequence (P78536 215-824): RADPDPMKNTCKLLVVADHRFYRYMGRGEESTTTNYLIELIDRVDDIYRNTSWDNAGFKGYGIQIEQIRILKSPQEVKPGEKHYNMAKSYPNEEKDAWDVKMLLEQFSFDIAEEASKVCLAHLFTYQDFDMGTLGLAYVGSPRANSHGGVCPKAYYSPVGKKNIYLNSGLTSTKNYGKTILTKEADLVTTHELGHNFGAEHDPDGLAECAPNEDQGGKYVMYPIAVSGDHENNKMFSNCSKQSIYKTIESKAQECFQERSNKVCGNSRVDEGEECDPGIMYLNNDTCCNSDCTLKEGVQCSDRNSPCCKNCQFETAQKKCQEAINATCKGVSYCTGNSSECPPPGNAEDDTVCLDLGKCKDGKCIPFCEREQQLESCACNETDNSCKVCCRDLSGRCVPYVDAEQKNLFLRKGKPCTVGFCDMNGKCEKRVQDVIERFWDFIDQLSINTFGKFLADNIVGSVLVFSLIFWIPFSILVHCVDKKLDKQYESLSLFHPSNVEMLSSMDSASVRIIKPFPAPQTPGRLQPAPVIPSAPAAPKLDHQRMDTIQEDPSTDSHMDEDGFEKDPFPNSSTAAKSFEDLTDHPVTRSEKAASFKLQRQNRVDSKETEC

O=C1CC(S)C(=O)N1c1ccc(Cl)c(Cl)c1 (stereo not drawn) [Compound 13, 1-(3,4-Dichlorophenyl)-3-mercaptopyrrolidine-2,5-dione]
inhibition at 1 µM [1]: 12 ± 2%
inhibition at 100 µM (MMP-1): < 10%
inhibition at 50 µM (MMP-2; 50 µM compound, read-out: MMP-2 % inh @50µM): < 10%
inhibition at 100 µM (MMP-2; read-out: MMP-2 % inhibition @ 100 μM, 100 μM compound): 39 ± 32%
inhibition at 100 µM (MMP-3): < 10%
inhibition at 100 µM (MMP-7): < 10%
inhibition at 50 µM (MMP-8; 50 µM compound, read-out: MMP-8 % inh @50µM): < 10%
inhibition at 100 µM (MMP-8; read-out: MMP-8 % inhibition @ 100 μM, 100 μM compound): 84 ± 8%
inhibition at 50 µM (MMP-14; 50 µM compound, read-out: MMP-14 % inh @50µM): < 10%
inhibition at 100 µM (MMP-14; read-out: MMP-14 % inhibition @ 100 μM, 100 μM compound): < 10%
IC50 (HDAC-3): > 100 µM
IC50 (HDAC-8): > 100 µM
IC50 (TACE (ADAM-17)): 5.2 ± 0.6 µM
MIC [2]: >100 µM
MIC ([2]; Pseudomonas aeruginosa): > 100 µM
improved activity against LasB compared to previous hit 5 (LasB [3]): two-fold
IC50 (in vitro [4]): > 100 µM
IC50 (in vitro [5]): > 100 µM
IC50 (in vitro [6]): > 100 µM
IC50 (LasB [7]): 3.4 ± 0.2 µM

Cc1c(O)c(=S)ccn1Cc1ccc(-c2ccccc2)cc1 [Compound 1]
IC50 (LasB [8]): 2.73 ± 0.03 µM
